Measured values as given in patent US20050163848A1 (priority 2003, published 2005).
Where two headings read alike, the source gives them in different places.

Key:
[1] = tested on: colonic segments; test: Macroscopic observation of excised colonic segments for irritation; type: in vivo; conditions: rats, 4 hour after intracolonic bolus 10 mg/rat
[2] = in vivo; conditions: male, Sprague-Dawley, rat, plasma
[3] = n-octanol/0.05M phosphate buffer, pH 7.4; cited from earlier work
[4] = in water and in both basic and acidic aqueous solutions; cited from earlier work
[5] = rats, normalized to 1 mg gabapentin/kg
[6] = rats; for AUC∞: time zero to infinity, based on 1 mg gabapentin/rat

## CCCCCCCCCCCCOS(=O)(=O)O.NCC1(CC(=O)O)CCCCC1 [gabapentin lauryl sulfate complex]
[1]
  histopathological change of colonic mucosa visible to the naked eye: no histopathological change visible to the naked eye

## NCC1(CC(=O)O)CCCCC1 [gabapentin, 1-(aminomethyl)cyclohexaneacetic acid]
[2]; iv, 1 mg/rat
  bioavailability: 100%
[2]; other: intracolonic bolus into the ligated colon, 10 mg/rat
  bioavailability: 4.9%
[1]
  histopathological change of colonic mucosa visible to the naked eye: no histopathological change visible to the naked eye
[3]
  log of the partition coefficient: −1.25
[4]
  solubility: freely soluble
[5]; duodenal, dose 14.8 ± 0.1 mg/kg
  AUC (0~4 h): 1705.2 ± 257.2 ng·h/mL/mg
[5]; duodenal, dose 30.6 ± 1.7 mg/kg
  AUC (0~4 h): 1205.7 ± 276.3 ng·h/mL/mg
[5]; duodenal, dose 59.8 ± 1.7 mg/kg
  AUC (0~4 h): 726.1 ± 223.9 ng·h/mL/mg
[5]; iv, dose 1 mg/kg, hour 4 point assumes log-linear decline
  AUC (0~4 h): 2727.1 ± 259.1 ng·h/mL/mg
[6]; colonic intubation 10 mg/rat
  AUC∞: 301.4 ng · h/mL-mg
[6]; iv 1 mg/rat
  AUC∞: 6090.3 ng · h/mL-mg
[6]; ligated colon, 10 mg/rat, FIG. 5
  absorption after intracolonic bolus: slow absorption
